Experimental findings from US20140271573A1, “PHARMACO-CELLULAR THERAPEUTIC METHOD FOR THE TREATMENT OF MUSCULAR DYSTROPHIES” (PONTIFICIA UNIVERSIDAD CATÓLICA DE CHILE, priority 2013, published 2014) are described below.

SMILES strings stand for the structures.

Assay type in all cases: in vivo, mouse
For assay [1], the system named is WT mice that overexpress CTGF. Description: Macrophages (F4/80 positive cells) in tibialis anterior of WT mice overexpressing CTGF by adenovirus. Conditions: CTGF overexpressed by adenovirus. As to the method: FIG. 3. Andrographolide modulates CTGF action in vivo. A) To augment the extent of muscle fibrosis, 3 months old mdx mice were subjected to an exercise protocol for 3 months. Along this period one group was treated with 1 mg/kg andrographolide or vehicle (i.p. injections 3 time per week, 4 animal per group). CTGF mRNA levels, a downstream TGF-β1 pro-fibrotic mediator) were determined in tibialis anterior muscle from Wild type (WT), Vehicle-Treated mdx and andrographolide-treated mdx mice by RT-qPCR using GAPDH as reference gene. Values correspond to the mean of dCT value±SD of three independent experiments, using four mice for each experimental condition and normalized to WT levels (*, P<0.05 relative to WT mice; #, P<0.05 relative to Vehicle-treated mdx mice). B) Detection of macrophages (F4/80 positive cells) through immunohistochemistry analysis in cryosections of tibialis anterior muscle from andrographolide-treated WT mice that overexpress CTGF by adenovirus (adv CTGF) infection.
For immunofluorescence, snap-frozen muscles in thawing isopentane were sectioned and cryosections (7 μm) were fixed in 4% paraformaldehyde, blocked 1 hour in 10% goat serum in PBS, incubated for one hour at room temperature with specific antibodies against fibronectin (Sigma, USA), collagen I (Chemicon, USA), F4/80 (abcam, USA), p-Smad2 (abcam, USA) and dystrophin (Santa Cruz, USA). […]

The test system of assay [2] is mdx mice. As to the kind of experiment: Contractile properties (isometric force) of isolated tibialis anterior muscle of mdx mice. Conditions: isolated tibialis anterior of treated mdx mice, vs vehicle-treated mdx. As to the method:
(§1) FIG. 6. Andrographolide increased skeletal muscle strength and exercise performance in mdx mice. 3 months old Wild Type (WT) and mdx mice were subjected to an exercise protocol for 3 months to augment the extent of muscle fibrosis. Along this period one group was treated with 1 mg/kg andrographolide or vehicle (i.p. injections 3 time per week, 6 animal per group). A) tibialis anterior muscles from wild-type (WT), Vehicle-treated mdx and andrographolide-treated mdx mice were isolated to evaluate isometric specific force (mN/mm2) at different stimulation frequencies (pulses per second, pps). B) Bar graph showing tetanic specific force. Values are represented as percentage of specific isometric force generated by Wild type muscle (*, P<0.05 relative to WT mice; #, P<0.05 relative to Vehicle-treated mdx mice). C) Bar graph showing twitch force (*, P<0.05 relative to WT mice; #, P<0.05 relative to Vehicle-treated mdx mice). D) Mice were subjected to an exercise challenge into the treadmill at 15 meters/min for 5 minutes and the number of stebacks was counted (*, P<0.05 relative to WT mice; #, P<0.05 relative to Vehicle-treated mdx mice).
(§2) Control or mdx (12 weeks old) male mice of C57BL/10 ScSn strain were studied. The animals were kept at room temperature with a […] night-day cycle and fed with pellets and water ad libitum. Experimental exercise was performed for running the mice in a treadmill for three times per week, 30 minutes each time at 12 m/min during 3 or 4 months (De Luca et al., 2005; De Luca et al., 2003). […]
The isometric force of isolated muscles were measured as described previously (Cabello-Verrugio et al., 2012). Briefly, optimum muscle length (Lo) and stimulation voltage were determined from micromanipulation of muscle length to produce maximum isometric twitch force. Maximum isometric tetanic force (Po) was determined from the plateau of the frequency-force relationship after successive stimulations at 1 to 200 Hz for 450 ms, with 2-minute rests between stimuli. […]

Assay [3] has as its system mdx mice. Description: Treadmill running test (step backs) in mdx mice. The note with it: treated mdx mice, treadmill at 15 m/min. On the procedure:
as §1
Mice were subjected to a running test during […] at 15 m/min in a treadmill. The number of times that mice were retarded (step backs) to the first ⅓ of the moving platform was counted (Cabello-Verrugio et al., 2012).

The subject of assay [4] is mdx mice. As to the kind of experiment: Collagen and fibronectin in tibialis anterior muscle of mdx mice, immunofluorescence and western blot. The note with it: exercised mdx mice, 1 mg/kg i.p. 3 times per week for 3 months. On the procedure: FIG. 5. Andrographolide reduced skeletal muscle fibrosis in mdx mice. To augment the extent of muscle fibrosis, 3 months old mdx mice were subjected to an exercise protocol for 3 months. Along this period one group was treated with 1 mg/kg andrographolide or vehicle (i.p. injections 3 time per week, 6 animal per group). A) Detection of collagen I and fibronectin by indirect immunofluorescence analysis in cryosections of tibialis anterior muscles from WT, Vehicle-treated mdx and andrographolide-treated mdx mice. Bar corresponds to 200 μm. B) fibronectin (FN) protein levels were detected by western blot analysis in extracts obtained from tibialis Anterior muscles from WT, Vehicle-treated mdx and andrographolide-treated mdx mice. […] GAPDH protein levels are shown as loading control; molecular weight markers are shown in kDa.
For immunoblot analyses, muscles were homogenized in 10 volume Tris-EDTA buffer with 1 mM PMSF as described previously (Morales et al., 2011). Briefly, proteins were determined in aliquots of muscle extracts using the bicinchoninic acid protein assay kit (Pierce, Ill.) using BSA as standard. Aliquots (50-100 μg) were subjected to SDS gel electrophoresis in 8% or 10% polyacrylamide gels, electrophoretically transferred onto PVDF membranes (Schleicher & Schuell) and probed with specific antibodies against fibronectin (Sigma-Aldrich, USA), collagen III (Rockland, USA and GAPDH (Millipore, USA), tubulin (Sigma-Aldrich, USA) and GAPDH (Sigma-Aldrich, USA). All immunoreactions were visualized by enhanced chemiluminescence kit (Pierce, USA). Densitometric analysis and quantification were performed using ImageJ software (NIH, USA) (Cabello-Verrugio et al., 2012).
as §2
(In general: Immunoblotting shows a protein as a band on a membrane.)

Take `C=C1CC[C@@H]2[C@](C)(CO)[C@H](O)CC[C@@]2(C)[C@@H]1C/C=C1/C(=O)OC[C@H]1O` [andrographolide]: the “number of F4/80 (macrophage marker) positive cells” value in assay [1] is given as “reduced”. Further, the “generation of isometric force” value with mdx mice [2] (frequencies between 50 and 100 Hz) is recorded as “significant increase”. In the assay with mdx mice [2], the tetanic force entry is recorded as “significant increase” and the twitch force entry is “significant increase”. For the same molecule, the “number of stepbacks at the treadmill” value in the assay on mdx mice [3] is reported as “decreased”. Further, in the assay on mdx mice [4] (tibialis anterior), the “accumulation of collagen type I, immunofluorescence staining” value is “strongly decrease” and the “accumulation of fibronectin, immunofluorescence staining” value is “strongly decrease”. The “fibronectin protein levels by western blot analysis” value with mdx mice [4] (tibialis anterior extracts) is recorded as “decreased”.
